The structures appear in SMILES notation.

The data set in a line: gradient 5% acetonitrile 3 min, to 50% in 2 min, to 85% in 15 min, held 3 min, 100 µL/min. The note with it: column: Zorbax Extend-C18 2.1 x 50 mm; eluents: water / acetonitrile, 0.1% formic acid. In short, it runs like this:
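A Zorbax Extend-C18 column (2.1 × 50 mm, 1.8 μm) run at 100 μL/min with water and acetonitrile, both containing 0.1% formic acid, separated mixtures of ~100 pure standards. The HPLC was coupled to a quadrupole time-of-flight mass spectrometer operated in positive and negative ionization mode, with dead and dwell volumes of 40 μL and 900 μL. Each retention time was taken from a computationally picked adduct peak that was then manually inspected.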
`Cc1ccc(C)c(NC(=O)NC2CCN(c3ccc(F)c(C)c3)C2=O)c1` (centres undefined) yielded an RP-LC retention time of 891 s. Then `Cc1cccc(Cc2cnc[nH]2)c1C`, with 667 s.

As to `Cc1ccc(C)c(S(=O)(=O)N2CC[C@H](n3c(=O)n(C)c4cccnc43)C2)c1`, the RP-LC retention time was found to be 892 s. Then `NC(=O)COc1cc(-c2cccc(Cl)c2)nc2ccc(NC(=O)C3CC3)cc12`, with 667 s; and `Cc1ccccc1Sc1nccnc1SCC(=O)N1CCN(c2ccccn2)CC1`, with 715 s. The compound `NC(=O)Cc1csc(NC(=O)COc2ccc3c(c2)C(=O)CC3)n1` had an RP-LC retention time of 600 s.

With `Cc1ccc(C)c(NC(=O)C2CCN(S(C)(=O)=O)c3ccccc3O2)c1` (centres undefined), the RP-LC retention time was 943 s. `CN(C)c1ccc(-c2nc3cnccn3c2Nc2ccc(Cl)cc2)cc1` gave an RP-LC retention time of 880 s. As to `Cc1cccc2sc(NC(=O)CNC(=O)c3ccc(=O)[nH]c3)nc12`, the RP-LC retention time is 613 s. Compound `O=C(Cn1cnc(-c2cccs2)cc1=O)NCCOc1ccc(-c2ccco2)nn1` yielded an RP-LC retention time of 583 s. Then `CCCNC(=O)C1CCCN(c2nc3ncn(CC(=O)Nc4ccc(F)cc4F)c(=O)c3s2)C1` (centres undefined), with 684 s; and `CNC(=O)c1cc[nH]c1C1CCCN(C(=O)c2cscn2)C1` (centres undefined), with 591 s; and `O=C(Nc1cnc2ccccc2c1)c1cccc([N+](=O)[O-])c1`, with 717 s. Compound `O=C(Nc1ccc2c(c1)CCCN2C(=O)C1CC1)c1cc(Br)ccc1Cl` had an RP-LC retention time of 879 s. With `CCn1c(=O)c2c(nc3n2CC(C)CN3C2CCCCC2)n(C)c1=O` (centres undefined), the RP-LC retention time was 828 s. Then `CCCn1cc(CCNC(=O)Nc2ccccc2Cl)c2cccnc21`, with 812 s; and `COc1cccc(-c2cc(=O)n3c4ccccc4n(CC(=O)Nc4ccc(F)cc4)c3n2)c1`, with 980 s.

In turn, `Clc1ccc2nc(-c3cccc(Br)c3)c(Nc3ccc4c(c3)OCCO4)n2c1` registered an RP-LC retention time of 972 s.

In the case of `Cn1c(=O)n([C@H]2CCCN(S(=O)(=O)Cc3ccccc3)C2)c2ncccc21`, the RP-LC retention time was 827 s. Then `O=C(NCCc1ccccc1)C(=O)c1ccc[nH]1`, with 824 s; and `Cc1cc(N2CCN(S(=O)(=O)c3ccc(C)c(C)c3)CC2)nc(NC2CCCCC2)n1`, with 876 s; and `COc1ccc(C)cc1NC(=O)C1CCc2nc(N3CCOCC3)ncc2C1` (centres undefined), with 832 s. Then `COc1ccc(CNC(=O)CN2C(=O)C3CCCCN3c3ccc(C(=O)N(C)C)cc32)c(OC)c1` (centres undefined), with 756 s; and `Cc1ccc(-n2ncc3c(NCCCN(C)C)ncnc32)cc1Cl`, with 670 s. Then `COc1ccc2[nH]c(=O)c(CCC(=O)NCc3cccnc3)cc2c1`, with 571 s; and `CC(=O)Nc1c(C)nn(-c2ccccc2)c1N1CCC(C(=O)NCC2COCCO2)CC1` (centres undefined), with 605 s; and `O=C(O)c1cccc(Nc2c(-c3ccc(N4CCOCC4)cc3)nc3cnccn23)c1`, with 648 s. `O=C(NCC1CCCCC1)C1CCN(C(=O)c2ncn3c2COC(c2ccc(Cl)cc2)C3)CC1` (centres undefined) registered an RP-LC retention time of 830 s.

Regarding `CC(C)NC(=O)N1CCC(c2noc(-c3ccncc3)n2)C1` (centres undefined), the RP-LC retention time was found to be 626 s.

Compound `CCOC(=O)c1cccc(Nc2nc(C)nc3c2CCC3)c1` showed an RP-LC retention time of 654 s. Then `CC(C(=O)NCCSc1nncn1C)n1nnc2ccccc2c1=O` (centres undefined), with 578 s; and `CC(C)N1CCN(Cc2ccc(C(=O)NCCC3=CCCCC3)cc2)C(=O)C1=O`, with 760 s. With `COc1cc(NC(C)=O)c(Cl)cc1C(=O)NCCc1c[nH]c2ccc(C)cc12`, the RP-LC retention time was 831 s. Then `Cc1ccc(NC(=O)N2C[C@@H](F)C[C@H]2C(=O)N2CCCCC2)cc1Cl`, with 813 s. In the case of `CCOC(=O)N1CCN(c2cc(C(=O)O)c3cc(NC(=O)c4ccccc4F)ccc3n2)CC1`, the RP-LC retention time was determined as 628 s. Then `COc1ccccc1-c1nc(-c2cn(-c3cccc(Cl)c3)nn2)no1`, with 1050 s. Then `Cc1ccc(-c2nnc(-c3cccc(S(=O)(=O)NCc4ccco4)c3)o2)cc1`, with 968 s; and `CS(=O)(=O)CCNCc1nc(-c2ccc3ncnc(Nc4ccc(OCc5cccc(F)c5)c(Cl)c4)c3c2)cs1`, with 717 s; and `O=C(c1cc(S(=O)(=O)N2CCCC(C(=O)N3CCc4ccccc43)C2)c[nH]1)N1CCCCCC1` (centres undefined), with 949 s. Then `CCOc1ccc(-n2ccn3cc(-c4ccc(Br)cc4)nc3c2=O)cc1`, with 954 s; and `Cc1ccc(C)c(Sc2cc(N3CCC(C(=O)N4CCC(C(N)=O)CC4)CC3)ncn2)c1`, with 652 s. As to `O=S(=O)(c1ccccc1)c1nnn2c1nc(NCc1ccc(F)cc1)c1sccc12`, the RP-LC retention time stood at 837 s. Then `C[C@H]1CN(C(=O)Nc2ccccc2Cl)C[C@@H]1c1nc(-c2ccncc2)no1`, with 854 s; and `CC1CCN(c2nc(C(=O)N(C)c3ccccc3)nc3c2cnn3C)CC1`, with 864 s; and `O=C(NCc1cc(F)cc(F)c1)c1ccc2c(c1)nc1n2CCN(C2CCCCC2)C1=O`, with 830 s.

`O=C(Nc1ccc(-c2ccc(=O)[nH]n2)cc1)c1ccc(-n2cccn2)nn1`: the RP-LC retention time was found to be 643 s. The compound `CCOc1ccc(CCNC(=O)c2ccc3c(c2)N(CC)C(=O)c2ccccc2O3)cc1OCC` returned an RP-LC retention time of 966 s.

The compound `Cc1sc(-c2cc(C(F)(F)F)on2)cc1S(=O)(=O)N1CCCCC1` displayed an RP-LC retention time of 1210 s. Regarding `Cc1ccc(-n2nc(N3CCCC(C(=O)Nc4ccc(F)cc4F)C3)ccc2=O)cc1Cl` (centres undefined), the RP-LC retention time is 1020 s. For the compound `Cc1nn(C)cc1C(=O)Nc1nc2ccccc2[nH]1`, the RP-LC retention time came out at 537 s. `Cc1ccccc1C(=O)Nc1nc(-c2ccc3c(c2)N(C)C(=O)CO3)cs1` returned an RP-LC retention time of 939 s. With `CS(=O)(=O)N1CCC(C(=O)NCc2ccccc2)Oc2ccc(Cl)cc21` (centres undefined), the RP-LC retention time is 882 s.

`CC(C)N1C(=O)c2cccnc2Sc2cc(NC(=O)c3ccccc3)ccc21` gave an RP-LC retention time of 864 s. Then `O=C(NCC(O)c1cccc2ccccc12)c1c(F)cccc1Cl` (centres undefined), with 796 s; and `CCS(=O)(=O)N1[C@H]2CC[C@@H]1c1cnc(-c3ccc(F)cc3)nc1C2`, with 945 s. Then `O=C(c1cn(-c2cc(-c3nc(C4CC4)no3)ccn2)cn1)N1CCOCC1`, with 708 s; and `CC1CCCN(c2nccnc2SCC(=O)Nc2ccc(F)cc2Cl)C1` (centres undefined), with 1300 s; and `Cc1ccsc1C(=O)NCc1ccc2c(c1)ncn2C(C)C`, with 616 s. Then `O=C(Cn1ccn2nc(-c3ccccc3)c(CO)c2c1=O)Nc1ccccc1F`, with 865 s. `COc1cc2c(cc1C(=O)NCCc1c[nH]c3ccccc13)OCCCO2` returned an RP-LC retention time of 859 s. `Cc1cccn2c(=O)c3cc(C(=O)NCCc4ccc(S(N)(=O)=O)cc4)n(C)c3nc12` gave an RP-LC retention time of 757 s. The compound `Cc1ccc(-c2cc3c(=O)n(Cc4noc(-c5ccccc5)n4)ccn3n2)c(C)c1` gave an RP-LC retention time of 1160 s. With `CCn1cc(-c2ccc(Cl)cc2)cc1C(=O)NCCN(C)C`, the RP-LC retention time was 702 s. Then `CC1=Nc2ccccc2N=C(NC(=O)Nc2cccc(Cl)c2)C1c1ccc(Cl)cc1` (centres undefined), with 1170 s.

The compound `O=C(CN1C(=O)CCC1=O)NCC1(c2ccc(F)cc2)CC1` had an RP-LC retention time of 665 s. `CCOc1ccc(S(=O)(=O)N2CCCC(C(=O)N3CCOCC3)C2)cc1` (centres undefined) gave an RP-LC retention time of 777 s.

In turn, `O=C(Nc1ccsc1-c1nnc(C2CC2)o1)c1ccoc1` registered an RP-LC retention time of 1080 s. Then `Cc1ccc(CNS(=O)(=O)c2cc3c(s2)CCN(C(=O)C2CCC2)C3)cc1`, with 943 s; and `O=C(NCC1CCN(c2cc(-c3cccnc3)[nH]n2)CC1)c1ccc2c(c1)OCO2`, with 600 s. Then `O=c1[nH]c2ccc(NCc3ccc(Cl)c(Cl)c3)cc2[nH]1`, with 707 s. Then `O=C(CN1CCN(C(=O)Nc2ccc(F)cc2)CC1=O)NC1CCCCC1`, with 701 s; and `CCCC(NC(=O)CCc1ccccc1OC)C(=O)Nc1nc2ccccc2[nH]1` (centres undefined), with 750 s; and `CC(C)n1cc(C2=CCN(S(=O)(=O)Cc3ccc(Cl)cc3)CC2)c2cccnc21`, with 1130 s.

In turn, `CNC(=O)C1CCCN(c2nc3ncn(CC(=O)Nc4cc(F)ccc4C)c(=O)c3s2)C1` (centres undefined) displayed an RP-LC retention time of 644 s. Then `COc1ccc(-c2c(C(=O)NCCN3CCN(C)CC3)nc3ccccn23)cc1`, with 574 s; and `C[C@H](NC(=O)C(C)(C)Oc1ccc(C(F)(F)F)cn1)[C@@H](Cc1ccc(Cl)cc1)c1cccc(C#N)c1`, with 1320 s. Consider `CCCc1noc(-c2ccnc(-n3ncc(C(=O)Nc4ccc(C)c(F)c4)c3C)c2)n1`, for which the RP-LC retention time is 1170 s. For `O=C(Nc1cnc(N2CCCCC2)nc1)C1CCCC1`, the RP-LC retention time was 834 s.

In turn, `COc1ccc(-c2nc3ncccn3c2NCc2ccccc2)cc1OC` displayed an RP-LC retention time of 682 s.

Source of the values: the METLIN SMRT retention time set (Domingo-Almenara et al. 2019).
